This assay concerns the target IKZF2 (Homo sapiens (Human), UniProt Q96SW2+Q9UKS7). The assay can be described thus: IKZF2 HiBiT Assay (Jurkat-IKZF2-HiBiT cell line). It counts as cell-based. The note with it: Jurkat-IKZF2-HiBiT cells, 24 hours; for DC50: read-out: HiBit assay degradation analysis DC50; for Dmax: read-out: HiBit assay degradation analysis Dmax. An outline of the steps: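 IKZF2 degradation was assessed as HiBiT luminescence in Jurkat-IKZF2-HiBiT cells, using lytic detection after 24 h of compound treatment at 37 °C, 5% CO2.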
A general note: With HiBiT, luminescence reflects the tagged protein that the partner subunit can reach.

For orientation: DC50 means the midpoint of the concentration-degradation curve. In general, Dmax refers to the largest share of the target that was removed.

Chain of IKZF2 (Q9UKS7 whole entry): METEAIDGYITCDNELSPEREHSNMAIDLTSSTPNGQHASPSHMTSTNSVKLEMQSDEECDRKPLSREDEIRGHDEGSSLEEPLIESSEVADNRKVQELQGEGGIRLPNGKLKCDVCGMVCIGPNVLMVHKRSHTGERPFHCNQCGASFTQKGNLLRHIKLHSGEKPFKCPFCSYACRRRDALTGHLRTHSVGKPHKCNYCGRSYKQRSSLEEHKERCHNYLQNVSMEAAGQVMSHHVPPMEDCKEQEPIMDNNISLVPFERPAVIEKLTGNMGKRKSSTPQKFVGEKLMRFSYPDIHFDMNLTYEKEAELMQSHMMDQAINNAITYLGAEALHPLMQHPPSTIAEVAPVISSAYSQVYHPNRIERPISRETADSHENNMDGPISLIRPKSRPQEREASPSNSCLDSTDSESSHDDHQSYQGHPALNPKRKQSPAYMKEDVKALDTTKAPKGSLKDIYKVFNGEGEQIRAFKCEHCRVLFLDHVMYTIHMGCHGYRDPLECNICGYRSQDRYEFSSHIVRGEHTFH
Chain of IKZF2 (Q96SW2 whole entry): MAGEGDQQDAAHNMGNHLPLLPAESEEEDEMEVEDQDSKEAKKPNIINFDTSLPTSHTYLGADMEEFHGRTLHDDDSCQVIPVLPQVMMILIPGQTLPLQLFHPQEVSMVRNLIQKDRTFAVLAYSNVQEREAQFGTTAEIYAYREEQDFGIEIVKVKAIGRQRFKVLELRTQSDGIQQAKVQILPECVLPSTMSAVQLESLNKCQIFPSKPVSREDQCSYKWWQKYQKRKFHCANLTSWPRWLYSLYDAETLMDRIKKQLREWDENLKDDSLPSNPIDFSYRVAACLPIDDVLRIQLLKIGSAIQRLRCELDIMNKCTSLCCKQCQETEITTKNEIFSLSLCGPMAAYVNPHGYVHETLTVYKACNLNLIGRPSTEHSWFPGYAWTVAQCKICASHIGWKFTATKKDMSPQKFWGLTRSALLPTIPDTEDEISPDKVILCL
Chain of IKZF2 (Q16531 whole entry partner): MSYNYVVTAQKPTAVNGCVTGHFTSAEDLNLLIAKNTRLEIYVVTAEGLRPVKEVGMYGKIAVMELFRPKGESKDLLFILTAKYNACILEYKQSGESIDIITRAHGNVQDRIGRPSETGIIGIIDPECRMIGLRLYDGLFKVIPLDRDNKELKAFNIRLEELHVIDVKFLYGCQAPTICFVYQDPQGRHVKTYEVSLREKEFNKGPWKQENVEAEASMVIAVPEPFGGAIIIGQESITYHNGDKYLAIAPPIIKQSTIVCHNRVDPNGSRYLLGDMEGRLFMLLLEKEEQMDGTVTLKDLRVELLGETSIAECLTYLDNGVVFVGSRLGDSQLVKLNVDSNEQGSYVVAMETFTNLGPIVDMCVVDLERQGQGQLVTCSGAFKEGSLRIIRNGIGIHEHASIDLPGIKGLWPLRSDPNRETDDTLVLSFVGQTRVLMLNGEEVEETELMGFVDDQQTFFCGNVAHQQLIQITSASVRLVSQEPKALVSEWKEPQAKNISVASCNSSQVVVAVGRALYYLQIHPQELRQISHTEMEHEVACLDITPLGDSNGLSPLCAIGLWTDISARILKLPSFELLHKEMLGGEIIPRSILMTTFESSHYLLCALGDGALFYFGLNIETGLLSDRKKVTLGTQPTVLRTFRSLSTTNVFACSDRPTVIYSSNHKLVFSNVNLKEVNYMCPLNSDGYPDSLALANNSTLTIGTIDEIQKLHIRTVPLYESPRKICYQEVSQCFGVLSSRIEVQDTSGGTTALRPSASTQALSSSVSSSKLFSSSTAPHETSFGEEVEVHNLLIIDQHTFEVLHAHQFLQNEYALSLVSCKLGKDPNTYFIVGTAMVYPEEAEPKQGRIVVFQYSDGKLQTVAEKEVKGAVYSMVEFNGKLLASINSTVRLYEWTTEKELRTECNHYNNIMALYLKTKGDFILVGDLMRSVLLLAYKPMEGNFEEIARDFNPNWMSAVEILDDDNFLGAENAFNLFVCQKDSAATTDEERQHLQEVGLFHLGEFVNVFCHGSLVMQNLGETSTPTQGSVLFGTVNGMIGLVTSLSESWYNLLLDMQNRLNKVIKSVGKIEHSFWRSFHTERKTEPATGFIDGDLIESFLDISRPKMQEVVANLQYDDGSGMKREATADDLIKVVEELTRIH

In the case of `CCOc1cccc(CN2CCC3(CC2)COc2c3ccc3c2CN(C2CCC(=O)NC2=O)C3=O)n1` (centres unmarked) [Compound A252, 3-(1′-((6-ethoxypyridin-2-yl)methyl)-6-oxo-6,8-dihydro-2H,7H-spiro[furo[2,3-e]isoindole-3,4′-piperidin]-7-yl)piperidine-2,6-dione], the DC50 is over 500 nM and the Dmax is under 40%.

Consider `CCn1cc2ccc(CN3CCC4(CC3)COc3c4ccc4c3CN([C@H]3CCC(=O)NC3=O)C4=O)cc2n1` [Compound A299, (S)-3-(1′-((2-ethyl-2H-indazol-6-yl)methyl)-6-oxo-6,8-dihydro-2H,7H-spiro[furo[2,3-e]isoindole-3,4′-piperidin]-7-yl)piperidine-2,6-dione], for which the DC50 is under 50 nM and the Dmax fell in the range of 60 to 80%.

As for `O=C1CCC(N2Cc3c(ccc4c3OCC43CCN(Cc4nccc5ccccc45)CC3)C2=O)C(=O)N1` (centres unmarked) [Compound A42, 3-(1′-(isoquinolin-1-ylmethyl)-6-oxo-6,8-dihydro-2H,7H-spiro[furo[2,3-e]isoindole-3,4′-piperidin]-7-yl)piperidine-2,6-dione], the 50% degradation concentration (DC50) was over 500 nM and the greatest degradation seen (Dmax) was under 40%.

As to `COCc1cccc(CN2CCC3(CC2)COc2c3ccc3c2CN(C2CCC(=O)NC2=O)C3=O)c1` (centres unmarked) [Compound A112, 3-(1′-(3-(methoxymethyl)benzyl)-6-oxo-6,8-dihydro-2H,7H-spiro[furo[2,3-e]isoindole-3,4′-piperidin]-7-yl)piperidine-2,6-dione], the half-maximal degradation concentration (DC50) lay within 200 to 500 nM and the maximal degradation (Dmax) was in the range of 60 to 80%.

Consider `O=C1CC[C@H](N2Cc3c(ccc4c3OCC43CCN(Cc4cccc(C5CCOC5)c4)CC3)C2=O)C(=O)N1` (stereo partly drawn) [Compound A304, (3S)-3-(6-oxo-1′-(3-(tetrahydrofuran-3-yl)benzyl)-6,8-dihydro-2H,7H-spiro[furo[2,3-e]isoindole-3,4′-piperidin]-7-yl)piperidine-2,6-dione], for which the DC50 is over 500 nM and the greatest degradation seen (Dmax) was 40 to 60%.

`O=C1CCC(N2Cc3c(ccc4c3OCC43CCN(Cc4cccc5[nH]cnc45)CC3)C2=O)C(=O)N1` (centres unmarked) [Compound A71, 3-(1′-((1H-benzo[d]imidazol-4-yl)methyl)-6-oxo-6,8-dihydro-2H,7H-spiro[furo[2,3-e]isoindole-3,4′-piperidin]-7-yl)piperidine-2,6-dione]: the DC50 was over 500 nM and the Dmax is 40 to 60%.

Turning to `O=C1CCC(N2Cc3c(ccc4c3OCC43CCN(Cc4ccc5nccnc5c4)CC3)C2=O)C(=O)N1` (centres unmarked) [Compound A48, 3-(6-oxo-1′-(quinoxalin-6-ylmethyl)-6,8-dihydro-2H,7H-spiro[furo[2,3-e]isoindole-3,4′-piperidin]-7-yl)piperidine-2,6-dione], the DC50 was over 500 nM and the Dmax was under 40%.

`O=C1CCC(N2Cc3c(ccc4c3OCC43CCN(Cc4cnn(CC(F)(F)F)c4)CC3)C2=O)C(=O)N1` (centres unmarked) [Compound A232, 3-(6-oxo-1′-((1-(2,2,2-trifluoroethyl)-1H-pyrazol-4-yl)methyl)-6,8-dihydro-2H,7H-spiro[furo[2,3-e]isoindole-3,4′-piperidin]-7-yl)piperidine-2,6-dione]: the DC50 is over 500 nM and the maximal degradation (Dmax) is 40 to 60%.

As to `O=C1CCC(N2Cc3c(ccc4c3OCC43CCN(Cc4cnn(S(=O)(=O)c5ccc(Cl)cc5)c4)CC3)C2=O)C(=O)N1` [Compound A352, (S)-3-(1′-((1-((4-chlorophenyl)sulfonyl)-1H-pyrazol-4-yl)methyl)-6-oxo-6,8-dihydro-2H,7H-spiro[furo[2,3-e]isoindole-3,4′-piperidin]-7-yl)piperidine-2,6-dione], the half-maximal degradation concentration (DC50) is 200 to 500 nM.

As to `O=C1CCC(N2Cc3c(ccc4c3OCC43CCN(Cc4cnn(-c5ccc(F)cc5)c4)CC3)C2=O)C(=O)N1` (centres unmarked) [Compound A312, 3-(1′-((1-(4-fluorophenyl)-1H-pyrazol-4-yl)methyl)-6-oxo-6,8-dihydro-2H,7H-spiro[furo[2,3-e]isoindole-3,4′-piperidin]-7-yl)piperidine-2,6-dione], the DC50 is over 500 nM and the Dmax lay within 40 to 60%.

Take `O=C1CC[C@H](N2Cc3c(ccc4c3OCC43CCN(Cc4cccc(-c5cnn(C6CC6)c5)c4)CC3)C2=O)C(=O)N1` [Compound A268, (S)-3-(1′-(3-(1-cyclopropyl-1H-pyrazol-4-yl)benzyl)-6-oxo-6,8-dihydro-2H,7H-spiro[furo[2,3-e]isoindole-3,4′-piperidin]-7-yl)piperidine-2,6-dione]: the DC50 was under 50 nM and the Dmax lay within 60 to 80%.

In the case of `O=C1CCC(N2Cc3c(ccc4c3OCC43CCN(Cc4ccc5scnc5c4)CC3)C2=O)C(=O)N1` (centres unmarked) [Compound A54, 3-(1′-(benzo[d]thiazol-5-ylmethyl)-6-oxo-6,8-dihydro-2H,7H-spiro[furo[2,3-e]isoindole-3,4′-piperidin]-7-yl)piperidine-2,6-dione], the 50% degradation concentration (DC50) was 50 to 200 nM and the maximal degradation (Dmax) fell in the range of 40 to 60%.

Regarding `CC(F)(F)c1ccc(CN2CCC3(CC2)COc2c3ccc3c2CN(C2CCC(=O)NC2=O)C3=O)cc1` (centres unmarked) [Compound A30, 3-(1′-(4-(1,1-difluoroethyl)benzyl)-6-oxo-6,8-dihydro-2H,7H-spiro[furo[2,3-e]isoindole-3,4′-piperidin]-7-yl)piperidine-2,6-dione], the DC50 was over 500 nM and the greatest degradation seen (Dmax) was under 40%.

Take `O=C1CCC(N2Cc3c(ccc4c3OCC43CCN(Cc4cnc5[nH]ccc5c4)CC3)C2=O)C(=O)N1` (centres unmarked) [Compound A163, 3-(1′-((1H-pyrrolo[2,3-b]pyridin-5-yl)methyl)-6-oxo-6,8-dihydro-2H,7H-spiro[furo[2,3-e]isoindole-3,4′-piperidin]-7-yl)piperidine-2,6-dione]: the half-maximal degradation concentration (DC50) is under 50 nM and the Dmax fell in the range of 60 to 80%.

Consider `O=C1CCC(N2Cc3c(ccc4c3OCC43CCN(Cc4nn(CC5COCCO5)c5ccccc45)CC3)C2=O)C(=O)N1` (centres unmarked) [Compound A328, 3-(1′-((1-((1,4-dioxan-2-yl)methyl)-1H-indazol-3-yl)methyl)-6-oxo-6,8-dihydro-2H,7H-spiro[furo[2,3-e]isoindole-3,4′-piperidin]-7-yl)piperidine-2,6-dione], for which the DC50 was under 50 nM and the Dmax was 60 to 80%.

Take `O=C1CCC(N2Cc3c(ccc4c3OCC43CCN(Cc4ccccc4OCc4ccccn4)CC3)C2=O)C(=O)N1` (centres unmarked) [Compound A157, 3-(6-oxo-1′-(2-(pyridin-2-ylmethoxy)benzyl)-6,8-dihydro-2H,7H-spiro[furo[2,3-e]isoindole-3,4′-piperidin]-7-yl)piperidine-2,6-dione]: the DC50 is under 50 nM and the greatest degradation seen (Dmax) lay in the range of 60 to 80%.

`CCOc1cccc(CN2CCC3(CC2)COc2c3ccc3c2CN(C2CCC(=O)NC2=O)C3=O)c1` (centres unmarked) [Compound A92, 3-(1′-(3-ethoxybenzyl)-6-oxo-6,8-dihydro-2H,7H-spiro[furo[2,3-e]isoindole-3,4′-piperidin]-7-yl)piperidine-2,6-dione]: the 50% degradation concentration (DC50) is 50 to 200 nM and the greatest degradation seen (Dmax) lay within 40 to 60%.

Consider `O=C1CC[C@H](N2Cc3c(ccc4c3OCC43CCN(Cc4ccc5cn(C(F)F)nc5c4)CC3)C2=O)C(=O)N1` [Compound A288, (S)-3-(1′-((2-(difluoromethyl)-2H-indazol-6-yl)methyl)-6-oxo-6,8-dihydro-2H,7H-spiro[furo[2,3-e]isoindole-3,4′-piperidin]-7-yl)piperidine-2,6-dione], for which the DC50 was under 50 nM and the Dmax is 60 to 80%.

The record behind these values is patent US20250215012A1, “IKZF2 DEGRADERS AND USES THEREOF” (REGENTS OF THE UNIVERSITY OF MICHIGAN, priority 2022, published 2025).
